# Reference: US20220387377A1, “(+)-CIS TETRAHYDROCANNABINOL ((+)-CIS-THC) FOR USE AS A MEDICAMENT” (GW Research Limited, priority 2019, published 2022)
# Entries after “also recorded” stand apart in the source; their conditions may differ.
# Assays:
# [1] = system: tonic hind limb convulsions induced by MES; assay: Mouse supramaximal electroshock seizure (MES) test; assay type: in vivo; set-up: key to Significance of inhibition of tonic hindlimb seizures vs vehicle (Fisher's test): * p < 0.05; *** p < 0.001; ns: Ns: non significantly different from vehicle control (Fisher's test)
# Description: The efficacy of (+)-cis-THC was tested in a mouse model of seizure, the maximal electroshock (MES) test.
# Mice were administered MES (30 mA, rectangular current: 0.6 ms pulse width, 0.2 s duration, 50 Hz) via corneal electrodes connected to a constant current shock generator (Ugo Basile: type 7801) to reliably produce tonic hind limb convulsions. The number of tonic convulsions was recorded.
# Sixteen mice were studied per group. The test was performed blind.
# The test substance, (+)-cis-THC, was evaluated at 4 doses (10, 50, 100 and 150 mg/kg), administered i.p. 60 minutes before MES, and compared with a vehicle control group (administered under the same experimental conditions).
# Valproate (positive control) was administered at 250 mg/kg i.p. 30 minutes before MES, was used as a reference substance and was compared with a vehicle group (administered i.p. 60 minutes before MES).
# Data was analysed by comparing treated groups with the appropriate vehicle control using 2-tailed Fisher's Exact Probability tests (p<0.05 considered significant).
# [2] = system: withdrawal threshold on hot plate set at 52° C.; assay: Mouse hotplate test (anti-nociception); assay type: in vivo
# Description: The efficacy of (+)-cis-THC was tested in a mouse model of pain, the hotplate test.
# Mice underwent a minimum habituation period of 7 days prior to study commencement. Naïve mice were acclimatised to the procedure room in their home cages, with food and water available ad libitum.
# Animals were treated with either treatment vehicle, (+)-cis-THC at 1,15, 50,100, 125 and 150 mg/kg at 10 ml/kg i.p. or Morphine 10 mg/kg or Morphine vehicle (Saline) at 10 ml/kg i.p.
# Animals were placed onto a hot plate set at 52° C. and time to withdrawal threshold (first response of lifting, licking front or hind paws or trying to escape) was taken at 1-hour post treatment, or at 0.5 hour after the positive control.
# Animals were culled by a schedule 1 method, immediately after the measurement.
# Data were analysed by comparing withdrawal thresholds back to Vehicle treated group
# [3] = depending on the assay; cited from earlier work
# [4] = 250 mg/kg I.P., 30 mins before MES
# [5] = 50 mg/kg I.P., 60 mins before MES
# [6] = 100 mg/kg I.P., 60 mins before MES
# [7] = 150 mg/kg I.P., 60 mins before MES
# [8] = 10 mg/kg I.P., 0.5 hour after treatment, hot plate 52° C.
smiles,measurement,setting,value
"CCCC(CCC)C(=O)O [Valproate, reference compound]",% change from vehicle in number of tonic clonic seizures after MES,[1]; [4],100.0%
same,Significance of inhibition of tonic hindlimb seizures vs vehicle (Fisher's test),[1]; [4],*** (*** p < 0.001)
same,% change from vehicle in number of tonic clonic seizures after MES,"[1]; 250 mg/kg I.P., 30 mins before MES, listed as valproate",100%
"CCCCCc1cc(O)c2c(c1)OC(C)(C)[C@@H]1CCC(C)=C[C@H]21 (relative stereo) [(+)-cis-THC, (+)-cis-delta-9-tetrahydrocannabinol]",Significance of inhibition of tonic hindlimb seizures vs vehicle (Fisher's test),"[1]; 10 mg/kg I.P., 60 mins before MES",ns
same,% change from vehicle in number of tonic clonic seizures after MES,[1]; [5],18.8%
same,Significance of inhibition of tonic hindlimb seizures vs vehicle (Fisher's test),[1]; [5],ns
same,% change from vehicle in number of tonic clonic seizures after MES,[1]; [6],25.0%
same,Significance of inhibition of tonic hindlimb seizures vs vehicle (Fisher's test),[1]; [6],ns
same,% change from vehicle in number of tonic clonic seizures after MES,[1]; [7],37.5%
same,Significance of inhibition of tonic hindlimb seizures vs vehicle (Fisher's test),[1]; [7],* (* p < 0.05)
same,Anti-convulsant effect in the MES model (overall),"[1]; 10, 50, 100 and 150 mg/kg i.p. 60 minutes before MES",dose-related increase in the percentage change; also recorded: significant anti-convulsant effect
same,Withdrawal threshold (sec) Mean +/− SEM,"[2]; 1 mg/kg I.P., 1-hour post treatment, hot plate 52° C.",10.23 ± 0.64 s
same,Withdrawal threshold (sec) Mean +/− SEM,"[2]; 15 mg/kg I.P., 1-hour post treatment, hot plate 52° C.",9.96 ± 0.73 s
same,Withdrawal threshold (sec) Mean +/− SEM,"[2]; 50 mg/kg I.P., 1-hour post treatment, hot plate 52° C.",9.80 ± 0.80 s
same,Withdrawal threshold (sec) Mean +/− SEM,"[2]; 100 mg/kg I.P., 1-hour post treatment, hot plate 52° C.",10.67 ± 0.77 s
same,Withdrawal threshold (sec) Mean +/− SEM,"[2]; 125 mg/kg I.P., 1-hour post treatment, hot plate 52° C.",11.18 ± 1.18 s
same,Withdrawal threshold (sec) Mean +/− SEM,"[2]; 150 mg/kg I.P., 1-hour post treatment, hot plate 52° C.",11.68 ± 0.52 s
same,Anti-nociceptive effect (withdrawal threshold compared to vehicle),"[2]; all doses tested, 1 to 150 mg/kg i.p.",none of the doses tested produced a significant difference; also recorded: no anti-nociceptive effect
"CN1CC[C@]23c4c5ccc(O)c4O[C@H]2[C@@H](O)C=C[C@H]3[C@H]1C5 [Morphine, reference compound]",Significance of withdrawal threshold vs vehicle control,[2]; [8],*** (*** p < 0.001 significant when compared to the corresponding vehicle control (Fisher's test).)
same,Withdrawal threshold (sec) Mean +/− SEM,[2]; [8],17.48 ± 1.08 s
same,Withdrawal threshold (sec) Mean +/− SEM,"[2]; 10 mg/kg I.P., 0.5 hour after treatment, hot plate 52° C., listed as morphine",significant increase in the withdrawal threshold
"CCCCCc1cc(O)c2c(c1)OC(C)(C)[C@@H]1CCC(C)=C[C@@H]21 [(−)-trans-THC, (−)-trans-delta-9-tetrahydrocannabinol]",Potency relative to the (+)-trans-THC isomer,[3],6-100 times
